One test deals with Splenocytes. As to the kind of experiment: T stimulation assay with IFNγ secreting ELISPOT kit on splenocytes of treated NOD mice. The test is classed as cell-based, NOD female mice. How it is done:
(FIG. 30.) Further, this system was studied in non-diabetic non-obese diabetic model (NOD). […] These mice were sacrificed and their spleens were collected for performing T stimulation assay using IFNγ secreting ELISPOT kit. […] After 36 hours of incubation, IFNγ secreting cells were looked for.

Test [1] deals with GAD 546-554 specific CD8 T cell clone (CTL.546L). As to the kind of experiment: Interferon gamma release of CTL.546L co-cultured with bioconjugate-treated M12C3.B7 APCs. The test is classed as cell-based, mouse. Particulars: compared with free peptide GAD 546-544; M12C3.B7 APCs treated 3 hours, co-culture 24 hours (FIG. 29). As for the experimental part:
M12C3B7, B cell line, was used as an APC. […] Later, these cells were co-cultured with CTL.546.L (2×10^5 cells/well) for 24 hours. After 24 hours of incubation, supernatants were collected for studying the interferon gamma release.
Co-culture was incubated for 24 hours at 37° C. Supernatants were used to study the IFNγ release.

The test system of test [2] is GAD 546-554 specific CD8 T cell clone. As to the kind of experiment: Cytokine release of GAD 546-554 specific CD8 T cell clone incubated with APLs and antigen presenting cells. Type of test: cell-based, mouse. The conditions noted are these: CD8 T cell clone incubated with APL and antigen presenting cells. An excerpt:
Immune cells protect the human body from foreign antigens. However, in autoimmune diseases like type 1 diabetes (T1D), autoreactive T cells recognize pancreatic beta cell related proteins as antigens, leading to beta cell destruction. An altered peptide ligand (APL) strategy can be used to target autoreactive T cells in T1D. GAD 546-554 (SEQ ID NO: 7) is reported as a dominant epitope recognized by autoreactive T cells, in the non-obese diabetic mouse model, that can cause destruction of beta cells. Nine APLs which have single alanine substitution, at different positions of GAD 546-554 (SEQ ID NO: 7), were screened. When GAD 546-554 (SEQ ID NO: 7) specific CD8 T cell clone was incubated with different APLs and antigen presenting cells, APL9 (SEQ ID NO: 8) inhibited both IFN-γ and TNF-α release. In order to improve antigen presentation and endosomal escape of APL9 (SEQ ID NO: 8), a bioconjugate platform of a liposome containing a Formula I bioconjugate of APL9 (SEQ ID NO: 8) and the toll like receptor ligand, Pam3CysSK4 (“CysSK4” disclosed as SEQ ID NO: 16), as well as antibody against macrophage and dendritic cell protein, F4/80, was developed. This immunotherapy strategy is beneficial to prevent T1D by rendering autoreactive immune cells more tolerant of beta cells. […]

We go through three substances from US11007256B2, “Synthetic lipopeptide vaccines and immunotherapeutics” (The University of Toledo, priority 2016, dated 2021).

Where no end group is shown, it is not given here.

“bioconjugate GAD 541-554: bioconjugate of GAD 541-554 (GTTMVSYQPLGDKV, SEQ ID NO: 6) (also: bioconjugate moiety, kind and site not given here)”: the “number of IFNγ secreting cells” value is given as “increase in number of IFNγ secreting cells” in the test on Splenocytes (splenocytes from vehicle treated NOD mice, treated in vitro for 36 hours (FIG. 31)) and “increase in number of IFNγ secreting cells” in the test with Splenocytes (splenocytes of NOD mice primed for three consecutive weeks, then treated with either bioconjugate or bioconjugate with F4/80 for 36 hours).

Consider “bioconjugate 546-554: Formula I bioconjugate of GAD 546-554 (SYQPLGDKV, SEQ ID NO: 7) with Pam3CysSK4 (also: Formula I bioconjugate with Pam3CysSK4, attachment site not given here)”, for which the IFNγ release entry in test [1] is “significantly lower”. As to SYQPLGDAV [APL9], in test [2], the IFN-γ release result was “inhibited” and the TNF-α release result was “inhibited”.
